Results reported in patent US9701962B2, “Hydrophobically modified antisense oligonucleotides comprising a ketal group” (Institut National de la Sante et de la Recherche Medicale …, priority 2013, dated 2017).
Strand notation (5' to 3'): a small letter for the sugar, then the base; units joined by * are phosphorothioate-linked, units joined directly phosphodiester-linked; [ ] holds rarer units or linkages, { } end groups; capitals alone tell only the bases. {(C15)2U} = uridine bearing a ketal whose carbon carries two C15 hydrocarbon chains (palmitone ketal); {C8F17} = hydrophobic mono-chain with C8F17 fluorocarbon moiety; d = 2'-deoxy (DNA)

How the values were obtained:
TCTP protein = TCTP protein expression by western blot in transfected PC-3 cells; type: cell-based, human; settings: for inhibition of TCTP protein expression over a long period: 6 days after transfection
Description: The CR prostate cancer cell line PC-3 was purchased from the American Type Culture Collection (Rockville, Md., USA). The cells were maintained in Dulbecco's Modified Eagle's Medium (Invitrogen, Cergy Pontoise, France), supplemented with 10% fetal calf serum (FCS).
Prostatic cell line were transfected with ASO#15PD, ASO#15PTO, LASO#15PD, LASO#15PTO and LASO#15LNA at various concentrations (from 30 nM to 100 nM), in OptiMEM® medium (Invitrogen), without serum and in the presence or not of Oligofectamine™ transfection reagent (Invitrogen), according to the manufacturer's instructions.
Serum was added 4 hours after transfection. Two or three days after transfection, the level of TCTP protein expression and GAPDH (used as housekeeping gene) were determined by performing western blotting.
Western Blot analysis was performed as described previously (Rocchi et al., 2004, Cancer Res. 64:6595-602) with 1:2000 rabbit TCTP polyclonal antibody (Abcam Inc., Cambridge, UK). Loading levels were normalized using 1:5000 rabbit anti-glyceraldehyde-3-phosphate dehydrogenase polyclonal (Abcam Inc.).
Prostatic cell line were transfected with FASO#15PTO at 100 nM, in OptiMEM® medium (Invitrogen), without serum and in the presence or not of Oligofectamine™ transfection reagent (Invitrogen), according to the manufacturer's instructions.

cell membrane = experiment: Penetration of the cell membrane; type: cell-based; settings: compared with ASO#15PTO
[1] = tested on: TCTP protein and cell growth; experiment: Screening of ASOs targeting TCTP mRNA for the lead sequence; type: cell-based, human; settings: 15 sequences tested
Description: The design, synthesis and screening of ASOs targeting TCTP mRNA were performed to determine the lead sequence. Among the 27 sequences, 12 were withdrawn (lack of specificity, high GC percentage) and 15 have been tested among which, 3 have been selected (#10 of sequence SEQ ID NO: 2, #14 of sequence SEQ ID NO: 7, #15 of sequence SEQ ID NO: 6) for their efficiency to inhibit TCTP protein and cell growth.

(C15)2U*5′AAC TTG TTT CCT GCA GGT GA3′ (DNA {(C15)2U}*dA*dA*dC*dT*dT*dG*dT*dT*dT*dC*dC*dT*dG*dC*dA*dG*dG*dT*dG*dA) [LASO#15PTO]
inhibition of TCTP protein expression over a long period (TCTP protein): strong to complete inhibition | inhibition of TCTP protein expression (TCTP protein; PC-3, in absence of transfection agent, 3 days after transfection): able to inhibit | inhibition of TCTP protein expression (TCTP protein; PC-3, in the presence of Oligofectamine, 30-100 nM, 2 or 3 days after transfection): most efficient | speed of penetrating the cell membrane (cell membrane): more quickly than ASO#15PTO

Flurocarbon 5′AAC TTG TTT CCT GCA GGT GA3′ (DNA {C8F17}-dA*dA*dC*dT*dT*dG*dT*dT*dT*dC*dC*dT*dG*dC*dA*dG*dG*dT*dG*dA) [FASO#15PTO, reference compound]
inhibition of TCTP protein expression (TCTP protein; PC-3, 100 nM, absence of Oligofectamine, 3 days after transfection): incapable of inhibiting | inhibition of TCTP protein expression (TCTP protein; PC-3, 100 nM, presence of Oligofectamine, 3 days after transfection): incapable of inhibiting

5′-TGGTTCATGACAATATCGAC-3′ (antisense (5'-TGGTTCATGACAATATCGAC-3'); as printed in the source, key not given here) [#14]
efficiency to inhibit TCTP protein and cell growth [1]: selected

5′-ACCAATGAGCGAGTCATCAA-3′ (antisense (5'-ACCAATGAGCGAGTCATCAA-3'); as printed in the source, key not given here) [#10]
efficiency to inhibit TCTP protein and cell growth [1]: selected

ASO#15PTO: DNA of sequence SEQ ID NO: 6 with a phosphorothiorate backbone (DNA dA*dA*dC*dT*dT*dG*dT*dT*dT*dC*dC*dT*dG*dC*dA*dG*dG*dT*dG*dA) [reference compound]
inhibition of TCTP protein expression over a long period (TCTP protein): not the case

5′-AACTTGTTTCCTGCAGGTGA-3′ (antisense (5'-AACTTGTTTCCTGCAGGTGA-3'); as printed in the source, key not given here) [#15]
efficiency to inhibit TCTP protein and cell growth [1]: selected
